Molecular target: T1, hROMK (hKir1.1) (Homo sapiens, UniProt P48048)
T1 construct: expressed in transfected cells
T1 sequence (P48048 1-391): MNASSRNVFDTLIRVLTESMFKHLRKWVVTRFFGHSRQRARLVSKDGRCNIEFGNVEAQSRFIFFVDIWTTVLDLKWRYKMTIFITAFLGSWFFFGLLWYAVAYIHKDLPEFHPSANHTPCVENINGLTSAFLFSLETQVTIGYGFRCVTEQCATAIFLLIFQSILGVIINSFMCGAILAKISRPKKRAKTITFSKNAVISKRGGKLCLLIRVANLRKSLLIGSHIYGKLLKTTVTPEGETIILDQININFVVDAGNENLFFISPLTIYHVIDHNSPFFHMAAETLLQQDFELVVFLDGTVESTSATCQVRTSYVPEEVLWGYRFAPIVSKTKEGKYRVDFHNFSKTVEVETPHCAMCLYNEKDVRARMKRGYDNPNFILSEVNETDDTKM
Experiment: Thallium Flux Assay (ROMK channel functional thallium flux, FLIPR-Tetra)
Format: cell-based
Details: HEK293 cells stably expressing hROMK (hKir1.1); 30 min incubation with compound; HCl salt run where final product was an HCl salt
Procedure: The following Thallium Flux Assay was performed on each of the final product compounds in the Examples. When the final product of an Example was an HCl salt, the salt was run in the Assay.
Cell Culture Conditions—HEK293 cells stably expressing hROMK (hKir1.1) were grown at 37° C. in a 10% CO2 humidified incubator in complete growth media: Dulbecco's Modified Eagle Medium supplemented with non-essential amino acids, Penicillin/Streptomycin/Glutamine, G418 and FBS. At >80% confluency, aspirate the media from the flask and rinse with 10 mL Calcium/Magnesium-free PBS. Add 5 mL of 1× trypsin (prepared in Ca/Mg Free PBS) to T-225 flask and return flask to 37° C./CO2 incubator for 2-3 minutes. To dislodge the cell, gently bang the side of the flask with your hand. Triturate the cells completely and then transfer the cells to 25 mL complete media. Centrifuge at 1,500 rpm for 6 min followed by resuspension in complete growth media and determine cell concentration. For typical re-seeding, 4E6 cells/T-225 flask will attain >80% confluency in 4 days. Under ideal growth conditions and appropriate tissue culture practices, this cell line is stable for 40-45 passages.
FluxOR Kit Components (Invitrogen F10017)
• FluxOR™ Reagent (Component A) • FluxOR™ Assay Buffer (Component B)—10× Concentrate • PowerLoad™ Concentrate (Component C)—100× Concentrate • Probenecid (Component D)—Lyophilized sample is kept at −20° C. Water soluble, 100× after solubilization in 1 mL water. Store at 4° C. • FluxOR™ Chloride-free Buffer (Component E)—5× Concentrate • Potassium sulfate (K2SO4) Concentrate (Component F)—125 mM in water. Store at 4° C. • Thallium sulfate (T12SO4) Concentrate (Component G)—50 mM in water. Store at 4° C. • DMSO (dimethyl sulfoxide, Component H)—1 mL (100%) Reagent Preparation: FluxOR Working Solutions • 1000× FluxOR™ Reagent: Reconstitute a vial of component A in 100 μl DMSO; Mix well; Store 10 μl aliquots at −20° C. • 1× FluxOR™ Assay Buffer: Dilute Component B 10-fold with water; Adjust pH to 7.4 with Hepes/NaOH; Filter and store at 4° C. • Probenecid/Assay Buffer: 100 mL of 1× FluxOR™ Assay Buffer; 1 mL of reconstituted component D; Store at 4° C. • Loading Buffer (per microplate): 10 μl 1000× FluxOR™ Reagent; 100 μl component C; 10 mL Probenecid/Assay Buffer • Compound Buffer (per microplate): 20 mL Probenecid/Assay Buffer; 0.3 mM ouabain (10 mM ouabain in water can be stored in amber bottle/aluminum foil at room temperature); Test compound • 1× FluxOR™ Chloride-Free Buffer: Prepare 1× working solution in water. Can be stored at room temperature • Stimulant Buffer (prepared at 5× final concentration in 1× FluxOR™ Chloride-Free Buffer): 7.5 mM Thallium sulfate and 0.75 mM Potassium sulfate (to give a final assay concentration of 3 mM Thallium/0.3 mM Potassium). Store at 4° C. when not in use.
Assay protocol—The ROMK channel functional thallium flux assay is performed in 384 wells, using the FLIPR-Tetra instrument. HEK-hKir1.1 cells are seeded in Poly-D-Lysine microplates and kept in a 37° C.-10% CO2 incubator overnight. On the day of the experiment, the growth media is replaced with the FluxOR™ reagent loading buffer and incubated, protected from light, at ambient temperature (23-25° C.) for 90 min. The loading buffer is replaced with assay buffer±test compound followed by 30 min incubation at ambient temperature, where the Thallium/Potassium stimulant is added to the microplate.
• 1. Seed HEK-hKir1.1 cells (50 μl at 20,000 cells/well) in 384-well PDL coated Microplates • 2. Allow cells to adhere overnight in humidified 37° C./10% CO2 incubator • 3. Completely remove cell growth media from microplate and replace with 25 μl loading buffer • 4. Incubate Microplate at room temperature, protected from light, for 90 min • 5. Remove loading buffer and replace with 25 μl 1× Assay Buffer±test compound. • 6. Incubate microplate at room temperature, protected from light, for 30 min • 7. […]

Structure (SMILES)	IC50 [nM]
Cc1ccc(C#N)cc1NC(=O)C1CCN(CCc2ccc3c(c2C)COC3=O)CC1 [Example 2, N-(5-cyano-2-methylphenyl)-1-(2-(4-methyl-1-oxo-1,3-dihydroisobenzofuran-5-yl)ethyl)piperidine-4-carboxamide]	460
Cc1c(CCN2CCC(C(=O)Nc3ccc(C#N)cc3)CC2)ccc2c1COC2=O [Example 3, N-(4-cyanophenyl)-1-(2-(4-methyl-1-oxo-1,3-dihydroisobenzofuran-5-yl)ethyl)piperidine-4-carboxamide]	140
Cc1c(CCN2CCC(C(=O)Nc3ccc(C#N)nc3)CC2)ccc2c1COC2=O [Example 4, N-(6-cyanopyridin-3-yl)-1-(2-(4-methyl-1-oxo-1,3-dihydroisobenzofuran-5-yl)ethyl)piperidine-4-carboxamide]	210
Cc1c(CCN2CCC(C(=O)Nc3ccc(C#N)c4ccccc34)CC2)ccc2c1COC2=O [Example 6, N-(4-cyanonaphthalen-1-yl)-1-(2-(4-methyl-1-oxo-1,3-dihydroisobenzofuran-5-yl)ethyl)piperidine-4-carboxamide]	70
Cc1cc(C#N)ccc1NC(=O)C1CCN(CCc2ccc3c(c2C)COC3=O)CC1 [Example 8, N-(4-cyano-2-methylphenyl)-1-(2-(4-methyl-1-oxo-1,3-dihydroisobenzofuran-5-yl)ethyl)piperidine-4-carboxamide]	100
Cc1c(CCN2CCC(C(=O)Nc3ccc4nonc4c3)CC2)ccc2c1COC2=O [Example 11, N-(benzo[c][1,2,5]oxadiazol-5-yl)-1-(2-(4-methyl-1-oxo-1,3-dihydroisobenzofuran-5-yl)ethyl)piperidine-4-carboxamide]	210
N#Cc1cc(F)c(NC(=O)C2CCN(CCc3ccc4c(c3)COC4=O)CC2)cc1F [Example 14, N-(4-cyano-2,5-difluorophenyl)-1-(2-(1-oxo-1,3-dihydroisobenzofuran-5-yl)ethyl)piperidine-4-carboxamide]	140
O=C1OCc2cc(CCN3CCC(C(=O)Nc4ccc5cn[nH]c5c4)CC3)ccc21 [Example 18, N-(1H-indazol-6-yl)-1-(2-(1-oxo-1,3-dihydroisobenzofuran-5-yl)ethyl)piperidine-4-carboxamide]	510
O=C1OCc2cc(CCN3CCC(C(=O)Nc4ccc5[nH]nnc5c4)CC3)ccc21 [Example 19, N-(1H-benzo[d][1,2,3]triazol-5-yl)-1-(2-(1-oxo-1,3-dihydroisobenzofuran-5-yl)ethyl)piperidine-4-carboxamide]	440
N#Cc1cc(NC(=O)C2CCN(CCc3ccc4c(c3)COC4=O)CC2)n(-c2ccc(F)cc2)c1 [Example 21, N-(4-cyano-1-(4-fluorophenyl)-1H-pyrrol-2-yl)-1-(2-(1-oxo-1,3-dihydroisobenzofuran-5-yl)ethyl)piperidine-4-carboxamide]	410

Continued by falling IC50, values first:

IC50 [nM]	Structure (SMILES)
470	Cc1c(C(O)CN2CCC(O)(C(=O)Nc3ccc(C#N)cn3)CC2)ccc2c1COC2=O (stereo in doubt) [Example 37, (R)-N-(5-cyanopyridin-2-yl)-4-hydroxy-1-(2-hydroxy-2-(4-methyl-1-oxo-1,3-dihydroisobenzofuran-5-yl)ethyl)piperidine-4-carboxamide]
470	O=C1OCc2cc(CCN3CCC(C(=O)Nc4ccc5sncc5c4)CC3)ccc21 [Example 20, N-(benzo[d]isothiazol-5-yl)-1-(2-(1-oxo-1,3-dihydroisobenzofuran-5-yl)ethyl)piperidine-4-carboxamide]
410	N#Cc1cc(NC(=O)C2CCN(CCc3ccc4c(c3)COC4=O)CC2)ccc1F [Example 17, N-(3-cyano-4-fluorophenyl)-1-(2-(1-oxo-1,3-dihydroisobenzofuran-5-yl)ethyl)piperidine-4-carboxamide]
260	N#Cc1cc(NC(=O)C2CCN(CCc3ccc4c(c3)COC4=O)CC2)ccc1Cl [Example 16, N-(4-chloro-3-cyanophenyl)-1-(2-(1-oxo-1,3-dihydroisobenzofuran-5-yl)ethyl)piperidine-4-carboxamide]
250	Cc1c(CCN2CCC(C(=O)Nc3cc(C#N)ccc3F)CC2)ccc2c1COC2=O [Example 9, N-(5-cyano-2-fluorophenyl)-1-(2-(4-methyl-1-oxo-1,3-dihydroisobenzofuran-5-yl)ethyl)piperidine-4-carboxamide]
180	N#Cc1ccc(NC(=O)C2CCN(CCc3ccc4c(c3)COC4=O)CC2)c(OC(F)(F)F)c1 [Example 15, N-(4-cyano-2-(trifluoromethoxy)phenyl)-1-(2-(1-oxo-1,3-dihydroisobenzofuran-5-yl)ethyl)piperidine-4-carboxamide]
170	COc1nsc(NC(=O)C2CCN(C[C@H](O)c3ccc4c(c3C)COC4=O)CC2)n1 [Example 1, (R)-1-(2-Hydroxy-2-(4-methyl-1-oxo-1,3-dihydroisobenzofuran-5-yl)ethyl)-N-(3-methoxy-1,2,4-thiadiazol-5-yl)piperidine-4-carboxamide]
100	Cc1nc(NC(=O)C2CCN(CCc3ccc4c(c3C)COC4=O)CC2)ccc1C#N [Example 7, N-(5-cyano-6-methylpyridin-2-yl)-1-(2-(4-methyl-1-oxo-1,3-dihydroisobenzofuran-5-yl)ethyl)piperidine-4-carboxamide]
40	Cc1c([C@@H](O)CN2CCC(C(=O)Nc3ccns3)CC2)ccc2c1COC2=O [Example 22, 1-[(2R)-2-hydroxy-2-(4-methyl-1-oxo-1,3-dihydro-2-benzofuran-5-yl)ethyl]-N-(isothiazol-5-yl)piperidine-4-carboxamide]
30	Cc1c(CCN2CCC(C(=O)Nc3ccc(C#N)c(F)c3)CC2)ccc2c1COC2=O [Example 5, N-(4-cyano-3-fluorophenyl)-1-(2-(4-methyl-1-oxo-1,3-dihydroisobenzofuran-5-yl)ethyl)piperidine-4-carboxamide]
30	CCOc1cc(NC(=O)C2CCN(CCc3ccc4c(c3)COC4=O)CC2)ccc1C#N [Example 12, N-(4-cyano-3-ethoxyphenyl)-1-[2-(1-oxo-1,3-dihydro-2-benzofuran-5-yl)ethyl]piperidine-4-carboxamide]
30	COc1cc(NC(=O)C2CCN(CCc3ccc4c(c3)COC4=O)CC2)ccc1C#N [Example 13, N-(4-cyano-3-methoxyphenyl)-1-(2-(1-oxo-1,3-dihydroisobenzofuran-5-yl)ethyl)piperidine-4-carboxamide]
10	Cc1c(CCN2CCC(C(=O)Nc3ccc4c(c3)COC4=O)CC2)ccc2c1COC2=O [Example 10, 1-(2-(4-methyl-1-oxo-1,3-dihydroisobenzofuran-5-yl)ethyl)-N-(1-oxo-1,3-dihydroisobenzofuran-5-yl)piperidine-4-carboxamide]

From patent US9951052B2, “Inhibitors of the renal outer medullary potassium channel” (Merck Sharp & Dohme Corp., priority 2013, dated 2018)
